# Molecular target: T1, RORc ligand binding domain (Homo sapiens, UniProt P51449)
# T1 sequence (P51449 269-508 limits assumed): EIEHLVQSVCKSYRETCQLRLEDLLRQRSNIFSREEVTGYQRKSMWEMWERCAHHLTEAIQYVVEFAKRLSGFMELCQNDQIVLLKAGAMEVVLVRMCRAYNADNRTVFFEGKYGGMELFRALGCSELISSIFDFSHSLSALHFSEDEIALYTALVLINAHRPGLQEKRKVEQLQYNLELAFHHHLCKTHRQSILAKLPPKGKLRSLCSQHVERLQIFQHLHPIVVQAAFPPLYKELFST
# Assay: In Vitro RORc Ligand Binding Assay
# Conditions: RORc IC50, radioligand 25-[3H]hydroxycholesterol 6 nM; 0.6 ug/mL RORc receptor; 3 h at 25° C.
row,SMILES,IC50
1,"CC1(C)[C@H]2CC[C@]1(c1cncc(-c3ccn(CC(N)=O)n3)n1)c1nnc(-c3c(F)cccc3F)cc12 [Example 411, 2-(3-(6-((5R,8S)-3-(2,6-difluorophenyl)-9,9-dimethyl-5,6,7,8-tetrahydro-5,8-methanocinnolin-8-yl)pyrazin-2-yl)-1H-pyrazol-1-yl)acetamide]",8.8 nM
2,"CC1(C)[C@H]2CC[C@]1(c1cncc(-c3ccn(CCC#N)n3)n1)c1nnc(-c3c(F)cccc3F)cc12 [Example 424, 3-(3-(6-((5R,8S)-3-(2,6-difluorophenyl)-9,9-dimethyl-5,6,7,8-tetrahydro-5,8-methanocinnolin-8-yl)pyrazin-2-yl)-1H-pyrazol-1-yl)propanenitrile]",10.9 nM
3,"CNS(=O)(=O)c1cncc([C@@]23CC[C@@H](c4cc(-c5c(F)cccc5F)nnc42)C3(C)C)n1 [Example 425, 6-((5R,8S)-3-(2,6-difluorophenyl)-9,9-dimethyl-5,6,7,8-tetrahydro-5,8-methanocinnolin-8-yl)-N-methylpyrazine-2-sulfonamide]",11.4 nM
4,"CC(C)(O)c1nc(-c2cncc([C@@]34CC[C@@H](c5cc(-c6c(F)cccc6F)nnc53)C4(C)C)n2)oc1Br [Example 426, 2-(5-bromo-2-(6-((5R,8S)-3-(2,6-difluorophenyl)-9,9-dimethyl-5,6,7,8-tetrahydro-5,8-methanocinnolin-8-yl)pyrazin-2-yl)oxazol-4-yl)propan-2-ol]",12.1 nM
5,"CC1(C)[C@H]2CC[C@]1(c1cncc(-c3nc([C@@](C)(O)C(F)(F)F)co3)n1)c1nnc(-c3c(F)cccc3F)cc12 [Example 427, (R)-2-(2-(6-((5R,8S)-3-(2,6-difluorophenyl)-9,9-dimethyl-5,6,7,8-tetrahydro-5,8-methanocinnolin-8-yl)pyrazin-2-yl)oxazol-4-yl)-1,1,1-trifluoropropan-2-ol]",15.9 nM
6,"CC1(C)[C@H]2CC[C@]1(c1cncc(-c3nc([C@](C)(O)C(F)(F)F)co3)n1)c1nnc(-c3c(F)cccc3F)cc12 [Example 428, (S)-2-(2-(6-((5R,8S)-3-(2,6-difluorophenyl)-9,9-dimethyl-5,6,7,8-tetrahydro-5,8-methanocinnolin-8-yl)pyrazin-2-yl)oxazol-4-yl)-1,1,1-trifluoropropan-2-ol]",15.7 nM
7,"CC[C@](C)(O)c1coc(-c2cncc([C@@]34CC[C@@H](c5cc(-c6c(F)cccc6F)nnc53)C4(C)C)n2)n1 [Example 429, (S)-2-(2-(6-((5R,8S)-3-(2,6-difluorophenyl)-9,9-dimethyl-5,6,7,8-tetrahydro-5,8-methanocinnolin-8-yl)pyrazin-2-yl)oxazol-4-yl)butan-2-ol]",13.8 nM
8,"CC[C@@](C)(O)c1coc(-c2cncc([C@@]34CC[C@@H](c5cc(-c6c(F)cccc6F)nnc53)C4(C)C)n2)n1 [Example 430, (R)-2-(2-(6-((5R,8S)-3-(2,6-difluorophenyl)-9,9-dimethyl-5,6,7,8-tetrahydro-5,8-methanocinnolin-8-yl)pyrazin-2-yl)oxazol-4-yl)butan-2-ol]",15 nM
9,"CC1(C)[C@H]2CC[C@]1(c1cncc(-c3nc(C(O)(O)C(F)(F)F)co3)n1)c1nnc(-c3c(F)cccc3F)cc12 [Example 431, 1-(2-(6-((5R,8S)-3-(2,6-difluorophenyl)-9,9-dimethyl-5,6,7,8-tetrahydro-5,8-methanocinnolin-8-yl)pyrazin-2-yl)oxazol-4-yl)-2,2,2-trifluoroethane-1,1-diol]",21.3 nM
10,"CC(C)(O)c1nc(-c2cncc([C@@]34CC[C@@H](c5cc(-c6c(F)cccc6F)nnc53)C4(C)C)n2)oc1Cl [Example 432, 2-(5-chloro-2-(6-((5R,8S)-3-(2,6-difluorophenyl)-9,9-dimethyl-5,6,7,8-tetrahydro-5,8-methanocinnolin-8-yl)pyrazin-2-yl)oxazol-4-yl)propan-2-ol]",18 nM
11,"CC(C)(O)c1nc(-c2cncc([C@@]34CC[C@@H](c5cc(-c6c(F)cccc6F)nnc53)C4(C)C)n2)oc1CO [Example 433, 2-(2-(6-((5R,8S)-3-(2,6-difluorophenyl)-9,9-dimethyl-5,6,7,8-tetrahydro-5,8-methanocinnolin-8-yl)pyrazin-2-yl)-5-(hydroxymethyl)oxazol-4-yl)propan-2-ol]",38.5 nM
12,"CCS(=O)(=O)Cc1coc(-c2cncc([C@@]34CC[C@@H](c5cc(-c6c(F)cccc6F)nnc53)C4(C)C)n2)n1 [Example 434, 2-(6-((5R,8S)-3-(2,6-difluorophenyl)-9,9-dimethyl-5,6,7,8-tetrahydro-5,8-methanocinnolin-8-yl)pyrazin-2-yl)-4-((ethylsulfonyl)methyl)oxazole]",11 nM
13,"CC1(C)[C@H]2CC[C@]1(c1cncc(-c3nc(CS(=O)(=O)C4CC4)co3)n1)c1nnc(-c3c(F)cccc3F)cc12 [Example 435, 4-((cyclopropylsulfonyl)methyl)-2-(6-((5R,8S)-3-(2,6-difluorophenyl)-9,9-dimethyl-5,6,7,8-tetrahydro-5,8-methanocinnolin-8-yl)pyrazin-2-yl)oxazole]",11.7 nM
14,COC(=O)c1n[nH]c(=O)cc1[C@@]12CC[C@@H](c3cc(-c4c(F)cccc4F)nnc31)C2(C)C [Example 436],192 nM

# The remaining lines, values ahead:
row,IC50,SMILES
1,11 nM,"CC1(C)[C@H]2CC[C@]1(c1nccc(-n3ccnc3)n1)c1nnc(-c3c(F)cccc3F)cc12 [Example 408, (5R,8R)-8-(4-(1H-imidazol-1-yl)pyrimidin-2-yl)-3-(2,6-difluorophenyl)-9,9-dimethyl-5,6,7,8-tetrahydro-5,8-methanocinnoline]"
2,7.8 nM,CC1(C)[C@H]2CC[C@]1(c1ccnc(-c3cnc(=O)[nH]c3)n1)c1nnc(-c3c(F)cccc3F)cc12 [Example 409]
3,6.3 nM,"CC1(C)[C@H]2CC[C@]1(c1cncc(-c3ccnc(OCC(N)=O)c3)n1)c1nnc(-c3c(F)cccc3F)cc12 [Example 410, 2-((4-(6-((5R,8S)-3-(2,6-difluorophenyl)-9,9-dimethyl-5,6,7,8-tetrahydro-5,8-methanocinnolin-8-yl)pyrazin-2-yl)pyridin-2-yl)oxy)acetamide]"
4,7.1 nM,CC1(C)[C@H]2CC[C@]1(c1ccnc(-c3ccnc(CO)c3)n1)c1nnc(-c3c(F)cccc3F)cc12 [Example 412]
5,5 nM,CC1(C)[C@H]2CC[C@]1(c1cncc(-c3ccc(CS(C)(=O)=O)nc3)n1)c1nnc(-c3c(F)cccc3F)cc12 [Example 413]
6,9.8 nM,"CC1(C)[C@H]2CC[C@]1(c1ccnc(-c3ccc(NS(C)(=O)=O)nc3)n1)c1nnc(-c3c(F)cccc3F)cc12 [Example 414, N-(5-(4-((5R,8S)-3-(2,6-difluorophenyl)-9,9-dimthyl-5,6,7,8-tetrahydro-5,8-methanocinnolin-8-yl)pyrimidin-2-yl)pyridin-2-yl)methanesulfonamide]"
7,22 nM,CC(C)(O)c1cnc(-c2nccc([C@@]34CC[C@@H](c5cc(-c6c(F)cccc6F)nnc53)C4(C)C)n2)cn1 [Example 415]
8,5.6 nM,"C[C@H](O)Cn1ccc(-c2cncc([C@@]34CC[C@@H](c5cc(-c6c(F)cccc6F)nnc53)C4(C)C)n2)n1 [Example 417, (S)-1-(3-(6-((5R,8S)-3-(2,6-difluorophenyl)-9,9-dimethyl-5,6,7,8-tetrahydro-5,8-methanocinnolin-8-yl)pyrazin-2-yl)-1H-pyrazol-1-yl)propan-2-ol]"
9,10.5 nM,C[C@@H](O)C(=O)Nc1ccc(-c2nccc([C@@]34CC[C@@H](c5cc(-c6c(F)cccc6F)nnc53)C4(C)C)n2)cn1 [Example 418]
10,10.1 nM,"CC1(C)[C@H]2CC[C@]1(c1cncc(-c3ccc(N)nc3)n1)c1nnc(-c3c(F)cccc3F)cc12 [Example 419, 5-(6-((5R,8S)-3-(2,6-difluorophenyl)-9,9-dimethyl-5,6,7,8-tetrahydro-5,8-methanocinnolin-8-yl)pyrazin-2-yl)pyridin-2-amine]"
11,9.2 nM,"CC1(C)[C@H]2CC[C@]1(c1cncc(-c3ccc(OCCO)nc3)n1)c1nnc(-c3c(F)cccc3F)cc12 [Example 420, 2-((5-(6-((5R,8S)-3-(2,6-difluorophenyl)-9,9-dimethyl-5,6,7,8-tetrahydro-5,8-methanocinnolin-8-yl)pyrazin-2-yl)pyridin-2-yl)oxy)ethanol]"
12,39.5 nM,"CC1(C)[C@H]2CC[C@]1(c1cncc(-n3ccncc3=O)n1)c1nnc(-c3c(F)cccc3F)cc12 [Example 421, 6′-((5R,8S)-3-(2,6-difluorophenyl)-9,9-dimethyl-5,6,7,8-tetrahydro-5,8-methanocinnolin-8-yl)-2H-[1,2′-bipyrazin]-2-one]"
13,16 nM,CC1(C)[C@H]2CC[C@]1(c1cncc(Oc3cnccn3)n1)c1nnc(-c3c(F)cccc3F)cc12 [Example 422]
14,9.6 nM,"C[C@H](O)Cn1ccc(-c2cncc([C@@]34CC[C@@H](c5cc(-c6c(F)cccc6F)nnc53)C4(C)C)n2)n1 [Example 423, (S)-1-(3-(6-((5R,8S)-3-(2,6-difluorophenyl)-9,9-dimethyl-5,6,7,8-tetrahydro-5,8-methanocinnolin-8-yl)pyrazin-2-yl)-1H-pyrazol-1-yl)propan-2-ol]"
